Experimental data taken from the supplement of paper PMC11208160.

Test: recombinant UMI read abundance after kanamycin selection (control-corrected) (log10(CPM+1)); higher = more efficient recombination; extreme values may be limits of the assay; sequences stand for … in AGTGCAGAGAAAATCGGCCAGTTTTCTCTGCCTGCAGTCCGCATGCCGTGGGACCCCTTGGGTTCTAACCTGTTGCCTAGATTTATGCAGCGGACTGCCTTTCTCCCAAAGTGATAAACCGG…AGGTTGGTTTCACT; site = the 11-nt donor
Procedure, shortened: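 Values are reported as log10(CPM+1), obtained by converting sequencing counts to CPM, averaging replicates and scaling by control-derived factors. The counts came from recombinant UMIs amplified by PCR across the donor–target junction. These UMIs came from a pooled Escherichia coli screen of donor and donor-binding-loop pairs for the IS621 bridge recombinase, plated with IPTG (0.07 mM) plus kanamycin or left unselected, in two replicates each.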
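Note: IS621 bridge recombinase in Escherichia coli cells against a fixed T5 target plasmid.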

Sequence | recombinant UMI read abundance (log10)
GAAGGTTCATGGACCGGTTTTCCCGGTAATCCGTATTTGTT (site GAAGTTTCTAA) | 0
GAAGTCACATGGACCGGTTTTCCCGGTAATCCGTATTTGGG (site AAAGTCACTCC) | 0.11
GAAGTCACATGGACCGGTTTTCCCGGTAATCCGTATTTGGG (site CAAGTCACTCC) | 0.0174
GAAGTCACATGGACCGGTTTTCCCGGTAATCCGTATTTGGG (site GAAGTCACTCC) | 0.412
GAAGTCACATGGACCGGTTTTCCCGGTAATCCGTATTTGGG (site TAAGTCACTCC) | 0.221
GAAGTGACATGGACCGGTTTTCCCGGTAATCCGTATTTGCG (site GAAGTGACTCG) | 2.14
GAATAAGCATGGACCGGTTTTCCCGGTAATCCGTATTTGTG (site GAATAAGCTCA) | 1.99
GAATATCCATGGACCGGTTTTCCCGGTAATCCGTATTTGCT (site GAATATCCTAG) | 1.3
GAATATCCATGGACCGGTTTTCCCGGTAATCCGTATTTGCT (site GACTATCCTAG) | 0
GAATATCCATGGACCGGTTTTCCCGGTAATCCGTATTTGCT (site GAGTATCCTAG) | 0
GAATATCCATGGACCGGTTTTCCCGGTAATCCGTATTTGCT (site GATTATCCTAG) | 0
GAATCATCATGGACCGGTTTTCCCGGTAATCCGTATTTGCT (site CGATCATCTAG) | 1.88
GAATCATCATGGACCGGTTTTCCCGGTAATCCGTATTTGCT (site GAATCATCTAG) | 1.95
GAATCGTCATGGACCGGTTTTCCCGGTAATCCGTATTTGCA (site GAATCGTCTTG) | 2.71
GAATCTCCATGGACCGGTTTTCCCGGTAATCCGTATTTGAA (site GAATCTCCTTT) | 0.611
GAATGCACATGGACCGGTTTTCCCGGTAATCCGTATTTGTA (site GAATGCACTTA) | 1.87
GAATGCACATGGACCGGTTTTCCCGGTAATCCGTATTTGTA (site GCATGCACTTA) | 0.691
GAATGCACATGGACCGGTTTTCCCGGTAATCCGTATTTGTA (site GGATGCACTTA) | 0.585
GAATGCACATGGACCGGTTTTCCCGGTAATCCGTATTTGTA (site GTATGCACTTA) | 0.36
GAATGGACATGGACCGGTTTTCCCGGTAATCCGTATTTGAC (site GAATGGACTGT) | 2.81
GAATGGACATGGACCGGTTTTCCCGGTAATCCGTATTTGAC (site GACTGGACTGT) | 0
GAATGGACATGGACCGGTTTTCCCGGTAATCCGTATTTGAC (site GAGTGGACTGT) | 0
GAATGGACATGGACCGGTTTTCCCGGTAATCCGTATTTGAC (site GATTGGACTGT) | 0.743

Sequence | recombinant UMI read abundance (log10)
GAATGGACATGGACCGGTTTTCCCGGTAATCCGTATTTGCA (site GAATGGACTTG) | 2.46
GAATGGACATGGACCGGTTTTCCCGGTAATCCGTATTTGCA (site GAATGGCCTTG) | 0.483
GAATGGACATGGACCGGTTTTCCCGGTAATCCGTATTTGCA (site GAATGGGCTTG) | 2.41
GAATGGACATGGACCGGTTTTCCCGGTAATCCGTATTTGCA (site GAATGGTCTTG) | 1.59
GAATGGCCATGGACCGGTTTTCCCGGTAATCCGTATTTGAA (site GAATGGCCTTA) | 0.00888
GAATGGCCATGGACCGGTTTTCCCGGTAATCCGTATTTGAA (site GAATGGCCTTC) | 0
GAATGGCCATGGACCGGTTTTCCCGGTAATCCGTATTTGAA (site GAATGGCCTTG) | 0.0104
GAATGGCCATGGACCGGTTTTCCCGGTAATCCGTATTTGAA (site GAATGGCCTTT) | 0.0109
GAATGGTCATGGACCGGTTTTCCCGGTAATCCGTATTTGCA (site GAATGGACTTG) | 0.0076
GAATGGTCATGGACCGGTTTTCCCGGTAATCCGTATTTGCA (site GAATGGCCTTG) | 0
GAATGGTCATGGACCGGTTTTCCCGGTAATCCGTATTTGCA (site GAATGGGCTTG) | 0.00395
GAATGGTCATGGACCGGTTTTCCCGGTAATCCGTATTTGCA (site GAATGGTCTTG) | 2.38
GAATTCCCATGGACCGGTTTTCCCGGTAATCCGTATTTGTA (site GAATTCCCTTA) | 0.666
GAATTGACATGGACCGGTTTTCCCGGTAATCCGTATTTGAT (site GAATTGACTAT) | 1.37
GAATTGCCATGGACCGGTTTTCCCGGTAATCCGTATTTGCA (site GAATAGCCTTG) | 0
GAATTGCCATGGACCGGTTTTCCCGGTAATCCGTATTTGCA (site GAATCGCCTTG) | 0
GAATTGCCATGGACCGGTTTTCCCGGTAATCCGTATTTGCA (site GAATGGCCTTG) | 0.696
GAATTGCCATGGACCGGTTTTCCCGGTAATCCGTATTTGCA (site GAATTGCCTTG) | 0
GACAAATCATGGACCGGTTTTCCCGGTAATCCGTATTTGGT (site GACAAAACTAC) | 0
GACAAATCATGGACCGGTTTTCCCGGTAATCCGTATTTGGT (site GACAAACCTAC) | 0
GACAAATCATGGACCGGTTTTCCCGGTAATCCGTATTTGGT (site GACAAAGCTAC) | 0.224
GACAAATCATGGACCGGTTTTCCCGGTAATCCGTATTTGGT (site GACAAATCTAC) | 0.59
GACAATCCATGGACCGGTTTTCCCGGTAATCCGTATTTGGT (site GACAAACCTAC) | 0

Sequence | recombinant UMI read abundance (log10)
GACAATCCATGGACCGGTTTTCCCGGTAATCCGTATTTGGT (site GACAACCCTAC) | 0.00483
GACAATCCATGGACCGGTTTTCCCGGTAATCCGTATTTGGT (site GACAAGCCTAC) | 0.0115
GACAATCCATGGACCGGTTTTCCCGGTAATCCGTATTTGGT (site GACAATCCTAC) | 0.0195
GACACGACATGGACCGGTTTTCCCGGTAATCCGTATTTGGG (site GACACGACTCC) | 0.173
GACAGGGCATGGACCGGTTTTCCCGGTAATCCGTATTTGAT (site GACAGGGCTAT) | 1.89
GACATCCCATGGACCGGTTTTCCCGGTAATCCGTATTTGAA (site GACATCCCTTT) | 0.475
GACCAACCATGGACCGGTTTTCCCGGTAATCCGTATTTGGT (site GACAAACCTAC) | 0
GACCAACCATGGACCGGTTTTCCCGGTAATCCGTATTTGGT (site GACCAACCTAC) | 0.0426
GACCAACCATGGACCGGTTTTCCCGGTAATCCGTATTTGGT (site GACGAACCTAC) | 0
GACCAACCATGGACCGGTTTTCCCGGTAATCCGTATTTGGT (site GACTAACCTAC) | 0.00842
GACCCATCATGGACCGGTTTTCCCGGTAATCCGTATTTGAG (site GACCCATCTCT) | 2.43
GACCGTCCATGGACCGGTTTTCCCGGTAATCCGTATTTGAG (site GACCGTCCTCT) | 0.281
GACCTACCATGGACCGGTTTTCCCGGTAATCCGTATTTGTC (site GACCTACCTGA) | 0
GACCTCACATGGACCGGTTTTCCCGGTAATCCGTATTTGGG (site GACCTCACTCC) | 0.0144
GACCTTGCATGGACCGGTTTTCCCGGTAATCCGTATTTGCA (site GACCTTGCTTG) | 0
GACGAACCATGGACCGGTTTTCCCGGTAATCCGTATTTGAG (site GACGAACCTCT) | 0
GACGAACCATGGACCGGTTTTCCCGGTAATCCGTATTTGGT (site GACAAACCTAC) | 0
GACGAACCATGGACCGGTTTTCCCGGTAATCCGTATTTGGT (site GACCAACCTAC) | 0.0777
GACGAACCATGGACCGGTTTTCCCGGTAATCCGTATTTGGT (site GACGAACCTAC) | 0
GACGAACCATGGACCGGTTTTCCCGGTAATCCGTATTTGGT (site GACTAACCTAC) | 0.0149
GACGCAACATGGACCGGTTTTCCCGGTAATCCGTATTTGTA (site GACGCAACTTA) | 1.34
GACGCCGCATGGACCGGTTTTCCCGGTAATCCGTATTTGGC (site GACGCCGCTGC) | 2.91
